Consider nine compounds from ChEMBL document CHEMBL1201862, “PubChem BioAssay data set” (2004).

Assay in all cases: NCI anticancer screen, dose series, 48 h
Experiment [1] deals with 786-0.
The subject of experiment [2] is A498.
Experiment [3] deals with ACHN.
For experiment [4], the system named is CAKI-1.
Experiment [5] deals with Malme-3M.
The test system of experiment [6] is NCI-H226.
In experiment [7] the test system is OVCAR-3.
Experiment [8] has as its system OVCAR-5.
The subject of experiment [9] is OVCAR-8.
In experiment [10] the test system is RPMI-8226.
For experiment [11], the system named is RXF 393.
In experiment [12] the test system is SF-295.
In experiment [13] the test system is SF-539.
For experiment [14], the system named is UACC-257.
The test system of experiment [15] is UO-31.
For experiment [16], the system named is HCT-116.
The subject of experiment [17] is DU-145.
In experiment [18] the test system is PC-3.

Each structure is given as a SMILES string.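 Dose response: 5 concentrations. Exposure: 48 h. Format: 96-well plates. Endpoint: linear interpolation; highest concentration if not reached. The concentration for 50% growth inhibition is given as GI50.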 The source made the active and inactive calls. Rule as the data show it: active = GI50 up to about 1.1 µM and inactive = higher. A value given as a limit tells only on which side of the number the result lay.

Consider `Nc1ccccc1SC(/C=C/NNC1=NN=C(c2ccccc2)C(c2ccccc2)N1)c1ccccc1` (stereo not given), for which the GI50 is 12.2 µM (inactive) in experiment [1]; 20.4 µM (inactive) in experiment [2]; 14.9 µM (inactive) in experiment [3]; 10.6 µM (inactive) in [4]; 15.9 µM (inactive) in experiment [5]; 13.7 µM (inactive) in experiment [6]. The GI50 was 13 µM (inactive) in experiment [7]; 20.8 µM (inactive) in experiment [8]; 18.1 µM (inactive) in experiment [9]; 2.96 µM (inactive) in experiment [10]; 14 µM (inactive) in [11]; 12.1 µM (inactive) in experiment [12]. Also, the GI50 in [13] is 13.2 µM (inactive); in experiment [14], 13.5 µM (inactive); in [15], 4.45 µM (inactive).
Consider `O=C1N(c2ccccc2)C2(O)C(=O)c3ccccc3C2(O)N1c1ccccc1` (stereo not given), for which the GI50 in experiment [1], in experiment [2], in [3], in experiment [4], in [16] and in [5] was > 100 µM (inactive) each time. For the same compound, the GI50 in experiment [6], in [7], in [8], in [9], in experiment [10] and in experiment [11] was > 100 µM (inactive) throughout. In addition, the GI50 in experiment [12], in [13], in experiment [14] and in experiment [15] was > 100 µM (inactive) each time.
Regarding `Cc1cc(C)cc(-n2c3nc(=O)n(C)c(=O)c-3nc3ccccc32)c1`, the GI50 is 81.7 µM (inactive) in experiment [1]; > 100 µM (inactive) in [2]; 27.4 µM (inactive) in experiment [3]; 37.8 µM (inactive) in experiment [4]; 23.9 µM (inactive) in experiment [16]; 16 µM (inactive) in experiment [5]. Also, the GI50 in experiment [6] is 34.7 µM (inactive); in experiment [7], 3.34 µM (inactive); in experiment [8], 39.5 µM (inactive); in experiment [9], 27.6 µM (inactive); in experiment [10], 29.7 µM (inactive); in experiment [11], > 100 µM (inactive). Further, the GI50 was 36 µM (inactive) in experiment [12], 21.4 µM (inactive) in experiment [13], 15.3 µM (inactive) in experiment [14] and 64.1 µM (inactive) in [15].
Turning to `Cc1ccc(C2=[N+]([O-])c3ccccc3C2=O)cc1`, the GI50 in experiment [1] is 24 µM (inactive); in experiment [2], > 100 µM (inactive); in experiment [3], 16 µM (inactive); in experiment [4] it was > 100 µM (inactive); in experiment [16] it was 23.6 µM (inactive); in experiment [5], 22.9 µM (inactive). Moreover, the GI50 in experiment [6] was 46.7 µM (inactive); in experiment [7] it was 16.6 µM (inactive); in experiment [8], 52.6 µM (inactive); in experiment [9] it was 17.3 µM (inactive); in experiment [10], 29.4 µM (inactive); in experiment [11] it was 17.7 µM (inactive). Moreover, the GI50 in [12] is 28.8 µM (inactive); in [13] it was 30.9 µM (inactive); in [14] it was 16.5 µM (inactive); in experiment [15], > 56.1 µM (inactive).
For the compound `COc1cc2c(c(OC(C)=O)c1OC(C)=O)-c1ccc(SC)c(=O)cc1C(NC(C)=O)CC2` (stereo not given), the GI50 in experiment [1] is 3.87 µM (inactive); in [2], 4.83 µM (inactive); in experiment [3] it was 24 µM (inactive); in experiment [4] it was 11.2 µM (inactive); in experiment [16], 1.36 µM (inactive); in [5], 1.34 µM (inactive). The GI50 in experiment [6] is 6.87 µM (inactive); in [7], 0.5 µM (active); in experiment [8], > 50.1 µM (inactive); in experiment [9] it was 3.66 µM (inactive); in experiment [10], 1.36 µM (inactive); in experiment [11], 8.91 µM (inactive). In addition, the GI50 in [12] was 2.23 µM (inactive); in experiment [13], 0.494 µM (active); in experiment [14] it was 1.07 µM (active); in [15], 89.1 µM (inactive).
In the case of `CC(=O)CC(=O)Nc1ccccc1C(F)(F)F`, the GI50 in [1], in experiment [2], in [3], in experiment [4], in [16] and in [5] was > 100 µM (inactive) throughout. Moreover, the GI50 in experiment [6], in experiment [8], in experiment [9], in [10], in experiment [11] and in experiment [13] was > 100 µM (inactive) throughout. In experiment [15], the GI50 was > 100 µM (inactive).
Consider `[O-][S+]1c2ccccc2SCSc2ccccc21`, for which the GI50 in experiment [1], in experiment [2], in experiment [3], in [4], in experiment [17] and in experiment [16] was > 100 µM (inactive) each time. Also, the GI50 in [5] was > 100 µM (inactive); in [7], > 100 µM (inactive); in [8], > 100 µM (inactive); in experiment [9] it was > 100 µM (inactive); in experiment [18], > 100 µM (inactive); in experiment [10] it was 18.2 µM (inactive). Moreover, the GI50 in experiment [11], in experiment [12], in [13] and in [15] was > 100 µM (inactive) throughout.
For `Cc1cc(NS(=O)(=O)c2ccc(NC(=O)c3cccc4c(Nc5ccc(S(=O)(=O)N=C(N)N)cc5)c5ccccc5nc34)cc2)no1`, the GI50 in experiment [1], in [2], in experiment [3], in experiment [4], in experiment [16] and in [5] was > 100 µM (inactive) each time. The GI50 in experiment [6], in experiment [7], in [8], in experiment [9], in [10] and in experiment [11] was > 100 µM (inactive) in each case. For the same compound, the GI50 in experiment [12], in [13], in experiment [14] and in [15] was > 100 µM (inactive) in each case.
Turning to `O=[N+]([O-])c1cc(C2SCc3nc4ccccc4n32)ccc1Cl` (stereo not given), the GI50 is 34.3 µM (inactive) in [1]; 18.1 µM (inactive) in [2]; 27.5 µM (inactive) in [3]; 33.3 µM (inactive) in [4]; 17.8 µM (inactive) in experiment [16]; 34.8 µM (inactive) in [5]. Moreover, the GI50 in experiment [6] was 25.1 µM (inactive); in [7] it was 25.3 µM (inactive); in experiment [8], 14.3 µM (inactive); in experiment [9] it was 30.3 µM (inactive); in experiment [10], 20.3 µM (inactive); in experiment [11], 25.3 µM (inactive). In addition, the GI50 in [12] is 38 µM (inactive); in experiment [13], 27.8 µM (inactive); in experiment [14], 22.3 µM (inactive); in experiment [15], 18.5 µM (inactive).
